What all share (assay): relative viability (nuclei count vs DMSO), 5 days (fraction); higher = more cells survive
Compound in experiment [1]: COc1cc(N2CCC(N3CCN(C)CC3)CC2)ccc1Nc1ncc(Cl)c(Nc2ccccc2S(=O)(=O)C(C)C)n1 [NVP-TAE684] + COc1cc2c(Oc3ccc(NC(=O)C4(C(=O)Nc5ccc(F)cc5)CC4)cc3F)ccnc2cc1OCCCN1CCOCC1 [Foretinib] (partner 0.25 µM)
The method in brief:
(§1)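 Dosing by pin tool came one day after lung cancer cell lines were seeded in 1536-well plates, using either one drug or a fixed anchor-drug dose plus five library-drug doses (not always all listed) in √10 steps. After 5 days, nuclei were counted on 4× images. Relative viability is treated-well nuclei count divided by vehicle-well nuclei count, and values are medians of duplicate plates.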

Compound in experiment [2]: COc1cc(N2CCC(N3CCN(C)CC3)CC2)ccc1Nc1ncc(Cl)c(Nc2ccccc2S(=O)(=O)C(C)C)n1 [NVP-TAE684] + N=C(N)NC(=N)NCCc1ccccc1 [Phenformin] (partner 250 µM)
The method in brief: as §1

Compound in experiment [3]: COc1cc(N2CCC(N3CCN(C)CC3)CC2)ccc1Nc1ncc(Cl)c(Nc2ccccc2S(=O)(=O)C(C)C)n1 [NVP-TAE684] + CCNC(=O)c1noc(-c2cc(C(C)C)c(O)cc2O)c1-c1ccc(CN2CCOCC2)cc1 [Luminespib] (partner 0.01 µM)
The method in brief: as §1

Compound in experiment [4]: C1=CC=C2C(=C1)N=C(S2)C(C#N)C3=NC(=NC=C3)NCCC4=CN=CC=C4 + CC1(C)CCC(c2ccc(Cl)cc2)=C(CN2CCN(c3ccc(C(=O)NS(=O)(=O)c4ccc(N[C@H](CCN5CCOCC5)CSc5ccccc5)c(S(=O)(=O)C(F)(F)F)c4)cc3)CC2)C1 [Navitoclax] (partner 0.5 µM)
The method in brief:
as §1

Compound in experiment [5]: C#Cc1cccc(Nc2ncnc3cc(OC)c(OCCCCCCC(=O)NO)cc23)c1 [CUDC-101] + NC(=O)Nc1cc(-c2cccc(F)c2)sc1C(=O)N[C@H]1CCCNC1 [AZD7762] (partner 0.2 µM)
The method, boiled down:
as §1

Regarding NCI-H2405, the relative viability was 1 in experiment [1] (first compound 0.2 µM); 0.966 in experiment [1] (first compound 0.6325 µM); 0.575 in experiment [1] (first compound 2 µM); 0.395 in experiment [2] (first compound 0.2 µM); 0.417 in experiment [2] (first compound 0.6325 µM); 0.312 in experiment [2] (first compound 2 µM). Also, the relative viability in experiment [3] (first compound 0.2 µM) was 0.703; in experiment [3] (first compound 0.6325 µM), 0.694; in experiment [3] (first compound 2 µM), 0.386; in experiment [4] (first compound 0.005 µM), 0.828; in experiment [4] (first compound 0.01581 µM), 0.936; in experiment [4] (first compound 0.05 µM), 0.815. For the same cell line, the relative viability in experiment [4] (first compound 0.1581 µM) is 0.862; in experiment [4] (first compound 0.5 µM), 0.859; in experiment [5] (first compound 0.01 µM), 0.763; in experiment [5] (first compound 0.03162 µM), 0.704; in experiment [5] (first compound 0.1 µM), 0.809; in experiment [5] (first compound 0.3162 µM), 0.747. The relative viability in experiment [5] (first compound 1 µM) is 0.649.

NCI-H3122: the relative viability in experiment [1] (first compound 0.2 µM) is 0.218; in experiment [1] (first compound 0.6325 µM), 0.274; in experiment [1] (first compound 2 µM), 0.101; in experiment [2] (first compound 0.2 µM), 0.156; in experiment [2] (first compound 0.6325 µM), 0.131; in experiment [2] (first compound 2 µM), 0.125. The relative viability in experiment [3] (first compound 0.2 µM) was 0.0817; in experiment [3] (first compound 0.6325 µM), 0.0775; in experiment [3] (first compound 2 µM), 0.068; in experiment [4] (first compound 0.005 µM) it was 0.935; in experiment [4] (first compound 0.01581 µM) it was 1.04; in experiment [4] (first compound 0.05 µM) it was 0.984. For the same cell line, the relative viability is 1.04 in experiment [4] (first compound 0.1581 µM); 1.01 in experiment [4] (first compound 0.5 µM); 0.998 in experiment [5] (first compound 0.01 µM); 0.951 in experiment [5] (first compound 0.03162 µM); 1 in experiment [5] (first compound 0.1 µM); 1.04 in experiment [5] (first compound 0.3162 µM). For the same cell line, in experiment [5] (first compound 1 µM), the relative viability was 1.06.

For the cell line PC-3 [JPC-3], the relative viability turned out to be 1.2 in experiment [1] (first compound 0.2 µM); 0.99 in experiment [1] (first compound 0.6325 µM); 0.793 in experiment [1] (first compound 2 µM); 0.477 in experiment [2] (first compound 0.2 µM); 0.436 in experiment [2] (first compound 0.6325 µM); 0.454 in experiment [2] (first compound 2 µM). Moreover, the relative viability in experiment [3] (first compound 0.2 µM) stood at 0.614; in experiment [3] (first compound 0.6325 µM) it was 0.639; in experiment [3] (first compound 2 µM) it was 0.601; in experiment [4] (first compound 0.005 µM) it was 0.776; in experiment [4] (first compound 0.01581 µM), 0.835; in experiment [4] (first compound 0.05 µM), 0.731. The relative viability stood at 0.819 in experiment [4] (first compound 0.1581 µM); 0.843 in experiment [4] (first compound 0.5 µM); 0.731 in experiment [5] (first compound 0.01 µM); 0.752 in experiment [5] (first compound 0.03162 µM); 0.65 in experiment [5] (first compound 0.1 µM); 0.538 in experiment [5] (first compound 0.3162 µM). Besides, the relative viability in experiment [5] (first compound 1 µM) stood at 0.361.

PC-14: the relative viability in experiment [1] (first compound 0.2 µM) came to 0.689; in experiment [1] (first compound 0.6325 µM) it was 1.12; in experiment [1] (first compound 2 µM), 1.03; in experiment [2] (first compound 0.2 µM), 0.505; in experiment [2] (first compound 0.6325 µM), 0.488; in experiment [2] (first compound 2 µM), 0.537. The relative viability in experiment [3] (first compound 0.2 µM) was 0.157; in experiment [3] (first compound 2 µM), 0.144; in experiment [4] (first compound 0.005 µM), 0.808; in experiment [4] (first compound 0.01581 µM), 1.13; in experiment [4] (first compound 0.05 µM), 1.09; in experiment [4] (first compound 0.1581 µM), 1.09. The relative viability was 0.851 in experiment [4] (first compound 0.5 µM); 0.428 in experiment [5] (first compound 0.01 µM); 0.339 in experiment [5] (first compound 0.03162 µM); 0.214 in experiment [5] (first compound 0.1 µM); 0.185 in experiment [5] (first compound 0.3162 µM); 0.124 in experiment [5] (first compound 1 µM).

For the cell line RERF-LC-KJ, the relative viability in experiment [1] (first compound 0.2 µM) is 0.853; in experiment [1] (first compound 0.6325 µM), 0.931; in experiment [1] (first compound 2 µM), 0.771; in experiment [2] (first compound 0.2 µM), 0.394; in experiment [2] (first compound 0.6325 µM), 0.334; in experiment [2] (first compound 2 µM), 0.257. In addition, the relative viability came to 1.65 in experiment [3] (first compound 0.2 µM); 1.21 in experiment [3] (first compound 0.6325 µM); 0.587 in experiment [3] (first compound 2 µM); 1.29 in experiment [4] (first compound 0.005 µM); 0.811 in experiment [4] (first compound 0.01581 µM); 0.804 in experiment [4] (first compound 0.05 µM). In addition, the relative viability is 0.843 in experiment [4] (first compound 0.1581 µM); 0.875 in experiment [4] (first compound 0.5 µM); 1.01 in experiment [5] (first compound 0.01 µM); 0.971 in experiment [5] (first compound 0.03162 µM); 1.18 in experiment [5] (first compound 0.1 µM); 0.922 in experiment [5] (first compound 0.3162 µM). Besides, in experiment [5] (first compound 1 µM), the relative viability was 0.608.

(Values after the supplement of paper PMC10307832.)
